Measurements as given in patent US5504071A, “Compounds with a sequence of three radicals, the central one being α- a” (Polifarma S.p.A., priority 1990, dated 1996).
Square brackets hold non-standard residues; d marks the D form. Peptide text beside a SMILES is read from it. * marks the point of attachment. Trp(1-Me) = Cn1cc(C[C@H](N)C(=O)O)c2ccccc21; Tic = O=C(O)[C@@H]1Cc2ccccc2CN1; pGlu = O=C1CC[CH](C(=O)O)N1; Hyp = O=C(O)[CH]1C[CH](O)CN1; Phg = N[CH](C(=O)O)c1ccccc1; ΔPro = O=C(O)[C@@H]1C=CCN1; Pip = O=C(O)[C@@H]1CCCCN1; αMeP = C[C]1(C(=O)O)CCCN1; Cbz = O=C(OCc1ccccc1)*; Aze = O=C(O)[CH]1CCN1; Boc = CC(C)(C)OC(=O)*

Key:
[1] = system: spontaneously hyper-tensive rats (SHR); assay: pressure tests in awake spontaneously hypertensive rats; type: in vivo
From the text: (§1) In the following examples will first of all be given the data necessary for synthesis of the compounds according to the present invention. There will then be given data regarding their pharmacological activity, using methods widely known to be valid. In particular, for the pressure tests, spontaneously hyper-tensive rats were used (SHR from the company Charles River), operated in such a way as to enable pressure to be read even when the animals were awake and free to move. In order to evaluate the analgesic activity, the Hot Plate and Writhing Tests were used. For the anti-inflammatory effect the test of carraginine edema was used. Finally, for immuno-modulating activity the evaluation of the stimulation of growth of human lymphocytes in culture was resorted to, after the addition of specific antigens. The results obtained for each synthesized compound are given at the end of each example.

[2] = system: carraginine edema; assay: carraginine edema test (anti-inflammatory effect); type: in vivo; conditions: dose not stated
From the text: as §1

[3] = system: human lymphocytes in culture; assay: stimulation of growth of human lymphocytes in culture after addition of specific antigens; type: cell-based; conditions: for immune response (immuno-stimulating activity): antigen not stated
From the text: as §1

[4] = analgesic activity, test not specified (Hot Plate and Writhing Tests); type: in vivo; conditions: test and dose not stated
From the text: as §1

[5] = Hot Plate test (analgesic activity); type: in vivo
From the text: as §1

[6] = Writhing test (analgesic activity); type: in vivo; conditions: dose not stated
From the text: as §1

Row | Structure (SMILES) | anti-hypertensive effect ([1]; dose not stated) | anti-inflammatory effect [2] | immune response (immuno-stimulating activity) [3] | other results
1 | COC(=O)[C@@H]1Cc2ccccc2CN1C(=O)CNC(=O)[C@@H]1CCC(=O)N1 [compound 24, (L)-Pyr-Gly-(L)-CypOMe] ([pGlu]-Gly-[Tic]-OMe) | bland anti-hypertensive action | moderate anti-inflammatory action | – | –
2 | COC(=O)[C@H](Cc1c[nH]c2ccccc12)NC(=O)[C@H](CC(C)C)NC(=O)[C@@H]1CCCCN1C(=O)OCc1ccccc1 [compound 15, Z-(L)-Pip-(L)-Leu-(L)-TrpOMe] (Cbz-[Pip]-Leu-Trp-OMe) | – | consistent | slight increase in immune response | anti-hypertensive effect ([1]; 2 mg/Kg i.v.): good anti-hypertensive effect; reduction of pressure ([1]; 2 mg/Kg i.v.): up to 30%
3 | COC(=O)C(NC(=O)CNC(=O)C1CCC(=O)N1)c1ccccc1 (stereo not drawn) [compound 22, (L)-Pyr-Gly-(L)-PhgOMe] ([pGlu]-Gly-[Phg]-OMe; configuration not given here) | – | very good | appears to increase the immune response | anti-hypertensive effect ([1]; 4 mg/Kg i.p.): excellent anti-hypertensive activity; reduction of pressure values ([1]; 4 mg/Kg i.p.): 20%; reduction of edema [2]: 70%
4 | COC(=O)[C@H](Cc1c[nH]c2ccccc12)NC(=O)[C@H](CC(C)C)NC(=O)c1ccc[nH]1 [compound 9, 2-Pyrrolyl-(L)-Leu-(L)-TrpOMe] | slight effect on pressure | bland reduction of inflammatory responses | – | –
5 | COC(=O)C(Cc1c[nH]c2ccccc12)NC(=O)C(CC(C)C)NC(=O)C1CC(O)CN1C(=O)OCc1ccccc1 (stereo not drawn) [compound 16, Z-(L)-Hyp-(L)-Leu-(L)-TrpOMe] (Cbz-[Hyp]-Leu-Trp-OMe; configuration not given here) | bland anti-hypertensive action | – | – | analgesic activity [4]: modest analgesic effect
6 | COC(=O)[C@H](Cc1c[nH]c2ccccc12)NC(=O)[C@H](CC(C)C)NC(=O)[C@@H]1CCC(=O)N1C(=O)OCc1ccccc1 [compound 19, Z-(L)-Pyr-(L)-Leu-(L)-TrpOMe] | slight anti-hypertensive effect | fair anti-inflammatory activity | – | –
7 | COC(=O)[C@@H]1Cc2c([nH]c3ccccc23)CN1C(=O)[C@H](CC(C)C)NC(=O)[C@@H]1CCC(=O)N1 [compound 25, (L)-Pyr-(L)-Leu-(S)-CytOMe] | bland anti-hypertensive effect | – | – | analgesic activity [4]: weak analgesic activity
8 | COC(=O)C(Cc1c[nH]c2ccccc12)NC(=O)C(CC(C)C)NC(=O)C1CCN1C(=O)OCc1ccccc1 [compound 17, Z-(S)-Aze-(L)-Leu-(L)-TrpOMe] (Cbz-[Aze]-Leu-Trp-OMe; configuration not given here) | slight anti-hypertensive effect | bland anti-inflammatory activity | – | –
9 | COC(=O)[C@H](Cc1c[nH]c2ccccc12)NC(=O)[C@H](CC(C)C)NC(=O)[C@@H]1C=CCN1C(=O)OC(C)(C)C [compound 13, Boc-.gradient.^3.4 -(L)-Pro-(L)-Leu-(L)-TrpOMe] (Boc-[ΔPro]-Leu-Trp-OMe) | slightly anti-hypertensive | – | slightly increases the immune response | –
10 | COC(=O)[C@H](Cc1ccc(OC)cc1)NC(=O)[C@H](C)NC(=O)[C@@H]1CCCN1C(=O)OCc1ccccc1 [compound 4, Z-(L)-Pro-(L)-Ala-(L)-OmtOMe] (Cbz-Pro-Ala-Tyr(Me)-OMe) | – | – | slightly increased | anti-hypertensive effect ([1]; 8 mg/Kg i.v.): bland anti-hypertensive effect
11 | C[C@H](NC(=O)[C@@H]1CCCN1C(=O)OCc1ccccc1)C(=O)NCCc1c[nH]c2ccccc12 [compound 2, Z-(L)-Pro-(L)-Ala-TrpH] | comparable to that of compound 1 | – | increased, but to a lesser extent than in the previous compound | –
12 | COC(=O)[C@@H]1Cc2ccccc2CN1C(=O)[C@H](C)NC(=O)[C@@H]1CCCN1C(=O)OCc1ccccc1 [compound 11, Z-(L)-Pro-(L)-Ala-CypOMe] (Cbz-Pro-Ala-[Tic]-OMe) | slight anti-hypertensive effect | moderate anti-inflammatory effect | – | –
13 | C[C@H](NC(=O)[C@@H]1CCCN1C(=O)OCc1ccccc1)C(=O)N1CCc2c([nH]c3ccccc23)C1 [compound 3, Z-(L)-Pro-(L)-Ala-CytH] | – | – | – | anti-hypertensive effect ([1]; 8 mg/Kg i.p.): bland anti-hypertensive effect
14 | CCOC(=O)[C@@H]1Cc2c([nH]c3ccccc23)CN1C(=O)[C@H](C)NC(=O)[C@@H]1CCCN1C(=O)OCc1ccccc1 [compound 1, Z-(L)-Pro-(L)-Ala-(S)-CytOEt] | – | – | – | anti-hypertensive effect ([1]; 4 mg/Kg i.p.): good anti-hypertensive effect; duration of the anti-hypertensive effect ([1]; 4 mg/Kg i.p.): maintained for a number of hours; pain killing effect under the Hot Plate test ([5]; 4 mg/Kg i.p.): slight pain killing effect; response of lymphocytes stimulated by phytohemoagglutinine (PHA) ([3]; PHA stimulation): increases the response of lymphocytes
15 | COC(=O)[C@@H](NC(=O)[C@H](C)NC(=O)[C@@H]1CCCN1C(=O)OCc1ccccc1)c1ccccc1 [compound 5, Z-(L)-Pro-(L)-Ala-(L)-PhgOMe] (Cbz-Pro-Ala-[Phg]-OMe) | – | – | – | anti-hypertensive effect ([1]; 8 mg/Kg i.p.): bland anti-hypertensive effect; analgesic effect using the Hot Plate test ([5]; dose not stated): moderate analgesic effect
16 | COC(=O)[C@H](Cc1c[nH]c2ccccc12)NC(=O)[C@H](CC(C)C)NC(=O)[C@@H]1Cc2ccccc2N1C(=O)OCc1ccccc1 [compound 14, Z-(S)-Dhi-(L)-Leu-(L)-TrpOMe] | bland reduction of pressure | – | – | analgesic activity [4]: moderate analgesic effect
17 | COC[C@H](Cc1ccccc1)NC(=O)CNC(=O)[C@@H]1CCC(=O)N1 [compound 23, (L)-Pyr-Gly-(L)-Pme] | – | – | good immuno-stimulating effect | analgesic activity [4]: excellent analgesic effect; reduction of contorsions during the Writhing test [6]: 80%; anti-hypertensive effect ([1]; 8 mg/Kg i.p.): good anti-hypertensive activity
18 | COC(=O)[C@H](Cc1c[nH]c2ccccc12)NC(=O)[C@H](CC(C)C)NC(=O)c1ccco1 [compound 8, 2-Fur-(L)-Leu-(L)-TrpOMe] | – | slight anti-inflammatory effect | strongly stimulated even with small doses of peptide | anti-hypertensive effect ([1]; 4 mg/Kg i.v.): slight anti-hypertensive effect
19 | COC[C@H](Cc1ccccc1)NC(=O)[C@H](C)NC(=O)[C@@H]1CCCN1C(=O)OCc1ccccc1 [compound 6, Z-(L)-Pro-(L)-Ala-(L)-Pme] | – | rather weak | more consistent | analgesic activity [4]: good analgesic activity; reduction of contorsions during the Writhing test [6]: 70%; anti-hypertensive effect ([1]; 2 mg/Kg i.v.): good anti-hypertensive activity; reduction of pressure ([1]; 2 mg/Kg i.v., after one hour): approximately 25%; extension of time in the Hot Plate test ([5]; dose not stated): 25%
20 | COC(=O)[C@H](Cc1c[nH]c2ccccc12)NC(=O)[C@H](CC(C)C)NC(=O)[C@@H]1CCCO1 [compound 18, (S)-Tfc-(L)-Leu-(L)-TrpOMe] | bland anti-hypertensive effect | – | stimulates the immune response in a moderate manner | –
21 | COC(=O)C(Cc1c[nH]c2ccccc12)NC(=O)C(CC(C)C)NC(=O)C1(C)CCCN1C(=O)OC(C)(C)C (stereo not drawn) [compound 12, Boc-(L)-Mep-(L)-Leu-(L)TrpOMe] (Boc-[αMeP]-Leu-Trp-OMe; configuration not given here) | bland anti-hypertensive effect | reduction of the inflammatory response | – | –
22 | COC(=O)[C@@H]1Cc2ccccc2CN1C(=O)[C@H](CC(C)C)NC(=O)[C@@H]1CCC(=O)N1C(=O)OCc1ccccc1 [compound 21, Z-CL)-Pyr-(L)-Leu-(S)-CypOMe] | slight anti-hypertensive activity | – | good immuno-stimulating activity | –
23 | COC(=O)[C@@H]1Cc2c([nH]c3ccccc23)CN1C(=O)[C@H](CC(C)C)NC(=O)[C@@H]1CCC(=O)N1C(=O)OCc1ccccc1 [compound 20, Z-(L)-Pyr-(L)-Leu-(S)-CytOMe] | bland anti-hypertensive activity | fair anti-inflammatory activity | – | –
24 | COC(=O)[C@H](Cc1cn(C)c2ccccc12)NC(=O)[C@H](C)NC(=O)[C@@H]1CCCN1C(=O)OCc1ccccc1 [compound 7, Z-(L)-Pro-(L)-Ala-(1)-Me-(L)-TrpOMe] (Cbz-Pro-Ala-[Trp(1-Me)]-OMe) | – | – | – | anti-hypertensive effect ([1]; 2 mg/Kg i.v.): good anti-hypertensive effect; reduction of pressure ([1]; 2 mg/Kg i.v.): 10%
25 | COC(=O)C(Cc1c[nH]c2ccccc12)NC(=O)C(CC(C)C)NC(=O)C1CCCN1C.Cl (centres unmarked) [compound 10, N-Me-(L)-Pro(L)-Leu-(L)-TrpOMe.HCl] | – | – | slightly increased | analgesic activity [4]: low analgesic effect; anti-hypertensive effect ([1]; 2 mg/Kg i.v.): excellent anti-hypertensive effect
